The values below come from a melting point compilation (Tetko et al.; mined from patent text by program, amines drawn as free bases though some values may be those of a salt).

The structures appear in SMILES notation.

Broadly, the melting point is the temperature of the solid-liquid transition. As for `O=C(Nc1c(C(=O)O)[nH]c2cc(Cl)cc(Cl)c12)c1ccccc1Cc1ccccc1`, the melting point was in the range of 234 to 235 °C.

For the molecule `N#Cc1ccc2cc(CCc3cc4ccc(C#N)cc4o3)oc2c1`, the melting point lay in the range of 266 to 267 °C.

As to `Sc1ccc(-n2cnnn2)cc1`, the melting point was 120 to 122 °C.

For `CNC(=CC#N)c1ccc2ccccc2c1`, the melting point came out at 138 °C.

For `NC(=O)c1ccc(NC(=O)CCc2cnoc2-c2ccccc2)cc1`, the melting point lay within 250 to 251 °C.

In turn, `O=CNC1Cc2ccccc2NC1=O` (centres undefined) had a melting point of 197 to 200 °C.

The molecule `CC(C)C(=O)NCCC1C=CC=CC1=O` (centres undefined) showed a melting point of 88 to 93 °C.

`Nc1ccccc1C(=O)NCCCn1cncn1` gave a melting point of 96 to 98 °C.

In the case of `NCCc1csc(N)n1`, the melting point was in the range of 69 to 71 °C.

The molecule `CNC(=O)NC(=O)C(CC1CCC(O)C1)c1ccc(Cl)c(Cl)c1` (centres undefined) showed a melting point of 82 to 84 °C.

Molecule `C/C(=C(\C#N)C(N)=S)N1CCC(O)CC1` yielded a melting point of 160 to 163 °C.

Turning to `Cc1ccc(OC(=O)N2CCC[C@H]2C(=O)O)cc1`, the melting point lay in the range of 76 to 77 °C.

The molecule `COc1ccccc1-c1cccc2c1OC(COS(=O)(=O)c1ccc(C)cc1)C2` (centres undefined) gave a melting point of 100 to 103 °C.

Consider `Cc1c(C(=O)OC(C)(C)C)c(O)cc2c1C(=O)c1c(O)cccc1C2=O`, for which the melting point came out at 207 °C.

The molecule `O=C(/C=C/c1ccncc1)N[C@H]1c2ccccc2C[C@H]1O` registered a melting point of 205 to 207 °C.

Regarding `CC(C)(C)OC(=O)N1CCn2c(cc3ccccc32)C1`, the melting point was 103 to 105 °C.

`C=C(CC(C)C)C(=O)NCC(=O)O` returned a melting point of 73 to 80 °C.

Consider `O=C(O)CCC(=NO)c1ccc(-c2ccc(Br)cc2)cc1`, for which the melting point was in the range of 175 to 176 °C.

`ClCc1ccc(Oc2ccc3ccc(Oc4ccc(CCl)cc4)cc3c2)cc1` displayed a melting point of 95 to 97 °C.

Regarding `COC(=O)C(Oc1ccc(C(C)(C)C)cc1)c1ccc(Sc2ccc(Cl)cc2)cc1` (centres undefined), the melting point was in the range of 106 to 108 °C.

Consider `Cc1cccc(C)c1N(C(C)CCl)S(C)(=O)=O` (centres undefined), for which the melting point is 126 to 128 °C.

`Cc1c(-c2ccc(F)cc2)n(Cc2ccc(OCCN3CCCCCC3)cc2)c2ccc(O)cc12` showed a melting point of 181 to 184 °C.

In turn, `CCCCc1oc2ccccc2c1C(=O)NCc1ccc2cc(O)ccc2c1` came in with a melting point of 155 to 156 °C.

`CCC(C)(C)Cc1ccc(C(=O)O)c(=O)[nH]1` returned a melting point of 170 to 172 °C.

`C=CC1CCC2(C)C(CCC3C4CCC(=O)C4(C)CCC32)C1` (centres undefined) came in with a melting point of 100 to 102 °C.

`COc1cc(Nc2nccc(-c3ccc(NC(C)=O)cc3)n2)cc(OC)c1OC` returned a melting point of 239 °C.

Regarding `CC(=O)Nc1c([N+](=O)[O-])cc(Br)cc1[N+](=O)[O-]`, the melting point lay in the range of 238 to 239 °C.

Molecule `CCOC(=O)c1c[nH]c2ccc(Cc3ccccc3)cc12` gave a melting point of 119 to 121 °C.

`CCN(CC)CC=CC(=O)Nc1cc2c(Nc3ccc(F)c(Cl)c3)ncnc2cc1OC1CCCC1` came in with a melting point of 105 °C.

Turning to `CCc1cc(C2=CCN(CCCC(O)c3ccc(F)cc3)CC2)[nH]n1` (centres undefined), the melting point fell in the range of 140 to 142 °C.

`COc1cc(NCCCCCCN2CCN(C(=NC#N)SC)CC2)c2nccc(C)c2c1` yielded a melting point of 97 to 99 °C.

For `O=C(O)c1c(C(F)(F)F)nc2ccccc2c1O`, the melting point turned out to be 262 °C.

Take `C=C1CCC2C3CCc4cc(OC)ccc4C3CCC12C` (centres undefined): the melting point lay in the range of 59 to 62 °C.

Regarding `O=C(O)c1cccnc1C1=NC(=O)C2(CCCCC2)N1`, the melting point lay within 186 to 189 °C.

Molecule `CCOC1CC2(C)C(CCC3C4CCC(CC)C4(C)CC(N(C)C)C32)CC1O` (centres undefined) yielded a melting point of 57 to 59 °C.

Regarding `O=C(CCCl)Nc1ccc2c(c1NC(=O)CCCl)C(=O)c1ccccc1C2=O`, the melting point was 179 to 180 °C.

Regarding `Cc1c(C(F)(C(F)(F)F)C(F)(F)F)c(-c2ccc(S(N)(=O)=O)cc2)c2n1CCC2`, the melting point was found to be 200 °C.

`CCCCc1ccc(-c2c(C)[nH]c(=O)n2C)cc1` registered a melting point of 180 °C.

Molecule `Cn1c(COc2ccc(CC3SC(=O)NC3=O)cc2)nc2ccc(Oc3cccc(NC(=O)Nc4ccccc4)c3)cc21` (centres undefined) registered a melting point of 165 to 167 °C.

Regarding `CCOC(=O)C(C)(C)n1c(=O)[nH]c2ccc(Cl)cc2c1=O`, the melting point lay within 179 to 180 °C.

With `CCCCCCNC(=O)OCc1ccc(CNC(=O)OC2CCN(C(=O)Oc3ccc(Oc4ccccc4)cc3)CC2)cc1`, the melting point lay in the range of 116 to 118 °C.

Consider `COc1ccc(C(=O)N2CCC(CCN3CCC(Nc4nc5ccccc5[nH]4)CC3)(c3ccccc3)C2)c(OC)c1OC` (centres undefined), for which the melting point fell in the range of 112 to 119 °C.

For `COc1ccc2[nH]cc(C3=CCN(C[C@H](O)COc4cccc5[nH]ccc45)CC3)c2c1`, the melting point fell in the range of 105 to 110 °C.

`O=Cc1ccc2c(c1)OC(c1ccccc1)(c1ccccc1)O2` registered a melting point of 157 to 159 °C.

Molecule `COc1ccc(COc2ccc(NC(C)=O)cc2C(=O)C=Cc2ccc(OCc3ccccc3)c(OCc3ccccc3)c2)cc1` yielded a melting point of 145 to 146 °C.

The molecule `Cc1cccc(NC(=O)c2ccccc2CN2C(=O)C3(COc4cc5c(cc43)CCO5)c3ccccc32)c1C` (centres undefined) registered a melting point above 230 °C.

In turn, `COc1cc(C(=O)c2c(N)sc3c2CCN(C(=O)c2ccc(Cl)cc2)C3)ccc1OC(C)C` yielded a melting point of 118 to 119 °C.

The molecule `Fc1ccc(NC(=S)Nc2nc3ccc(OC(F)(F)F)cc3s2)cc1` gave a melting point of 207 °C.

Turning to `COC(=O)C1=C(C)NC(C)=C(C(=O)OC)C1c1ccc(OCC(=O)NCCO[N+](=O)[O-])c(OC)c1`, the melting point fell in the range of 149 to 150 °C.

As for `COc1ccc2c(c1OC)C(=O)O[C@@H]2[C@H]1c2c(c(N=[N+]=[N-])c3c(c2OC)OCO3)CCN1C`, the melting point fell in the range of 177 to 178 °C.

The molecule `CCc1nc(N)nc(N)c1CCCc1cc(Cl)c(Cl)cc1Cl` had a melting point of 168 to 182 °C.

Regarding `CC1CCCC(C)N1CCCC(O)(c1ccccc1)c1ccccc1` (centres undefined), the melting point fell in the range of 90 to 91 °C.

`N[C@@H](CC(=O)c1ccc2oc3ccccc3c2c1)C(=O)O`: the melting point is 182 to 187 °C.

`O=C1c2ccc(C(F)(F)F)cc2CCC1CN1CCC2(CC1)C(=O)NCN2c1ccccc1` (centres undefined) yielded a melting point of 159 to 162 °C.

In the case of `CC1=C2C(=C(c3ccccc3Cl)N=CC(=O)N2C)NO1`, the melting point was in the range of 136 to 138 °C.

Molecule `O=C(O)c1c(Cl)ccc([N+](=O)[O-])c1Nc1ccc(OCc2ccccc2)cc1` came in with a melting point of 172 to 174 °C.

The molecule `COc1ccc(-c2nnc3c4ccccc4c(OCCCCO)nn23)cc1` returned a melting point of 180 to 182 °C.

Consider `CCN1CCCC1CNC(=O)c1cc(NS(C)(=O)=O)ccc1OC` (centres undefined), for which the melting point is 171 to 172 °C.

`CCS(=O)(=O)NCC(O)(Cn1cncn1)c1ccc(Cl)cc1Cl` (centres undefined) registered a melting point of 144 to 145 °C.

For `Nc1nc(N)nc(-c2ccc(-c3ccccc3)c3ccccc23)n1`, the melting point fell in the range of 239 to 240 °C.

`CN(C)CCCCCCOc1ccc(C(=O)CCc2ccccc2)cc1` registered a melting point of 27 to 28 °C.

For `Nc1cccc2c1Cc1cccc(N)c1C2`, the melting point was 179 °C.

In the case of `O[C@@H]1CN=C(c2ccc3ccccc3c2)O[C@H]1c1ccccc1` (racemic), the melting point is 172 °C.

`Fc1cccc(C(c2ccccc2)(c2cccc(F)c2)n2ccnc2)c1` had a melting point of 165 to 167 °C.

Regarding `CN(C)S(=O)(=O)c1ccc(Oc2ccc(S(=O)(=O)c3ccccc3)cc2)cc1`, the melting point lay within 99 to 100 °C.

Take `Cc1cccc(S(=O)(=O)n2cncn2)c1C#N`: the melting point lay in the range of 142 to 144 °C.

Molecule `COc1cc(OC)nc(Sc2c([N+](=O)[O-])c(C)nn2C)n1` had a melting point of 124 to 125 °C.

In turn, `Cc1cc2c(c(Cc3c[nH]cn3)c1)OC(C)(C)OC2` gave a melting point of 152 to 155 °C.

Regarding `CN(C)CCN(c1ccc(N)cc1)S(C)(=O)=O`, the melting point fell in the range of 147 to 148 °C.

For `O=C1CCc2cc(-n3ccnc3)ccc21`, the melting point lay in the range of 148 to 150 °C.

`COC[C@H]1CC[C@H](c2ccc(I)cc2)CC1` displayed a melting point of 40.3 to 42.3 °C.

`CC(C)N(CCNc1nc(Nc2cccc(NS(C)(=O)=O)c2)nc2[nH]cnc12)C(C)C`: the melting point is 226 to 230 °C.

For `CCOC(=O)COCCc1cc2cc(Cl)ccc2n1S(=O)(=O)c1ccccc1`, the melting point lay within 60 to 62 °C.

`CCn1nc(C)c2c1C1=NC(C)CN1C(C)=N2` (centres undefined) yielded a melting point of 145 to 147 °C.

Regarding `CCOC(=O)C1CCN(c2nnc(NCc3ccc4c(c3)OCO4)c3ccncc23)CC1`, the melting point is 135 to 136 °C.

For the molecule `O=C(O)CCc1ccc(OCc2ccccc2)cc1OCc1ccccc1`, the melting point is 125 to 127 °C.

The molecule `CCOCc1nc2c(N)nc3ccccc3c2n1CCOCCNC(=O)c1ccccc1` displayed a melting point of 154 to 156 °C.

`CN1CCC(O)(C(c2cc(Cl)ccc2F)n2cccc2)CC1` (centres undefined): the melting point was in the range of 124 to 125 °C.

`Cc1c2sc3ccccc3nc-2c2c(O)cccc2c1=O` gave a melting point of 226 to 228 °C.

In the case of `CC1CN(CC(C)C(O)c2ccc(C(C)(C)C)cc2)CC(C)O1` (centres undefined), the melting point was in the range of 49 to 50 °C.

`Cc1cccc(C(=O)n2nc(Nc3cccc(OCC(=O)N4CCNCC4)c3)nc2N)c1` displayed a melting point of 169 to 171 °C.

Take `CCc1nc2c(N)nc3ccc(OCc4ccccc4)cc3c2n1CCCCNC(=O)c1ccccc1`: the melting point lay in the range of 226 to 230 °C.

Take `O=c1c(Oc2ccccc2)nc2ccccc2n1-c1ccc(Cl)cc1`: the melting point was in the range of 239 to 241 °C.

`CSc1ccc(N)c(C(=O)NCC2CCN(C(c3ccccc3)c3ccccc3)CC2)c1` showed a melting point of 156 to 157 °C.

`CC1=C(C)CC(C(=O)Nc2ccccc2)C(C(=O)O)C1` (centres undefined): the melting point is 155 to 156 °C.

As for `O=C(CC(=O)c1cccc(C(F)(F)F)c1NC(=O)CCl)Nc1nccs1`, the melting point amounted to 192 °C.

`CCOC(=O)C(=NOC(CC)C(=O)O)c1csc(NC(c2ccccc2)(c2ccccc2)c2ccccc2)n1` (centres undefined) displayed a melting point of 154 °C.

Take `Nc1ccc2ccccc2c1-c1c(O)ccc2ccccc12`: the melting point is 236 to 237 °C.

The molecule `CS(=O)(=O)c1ccc(-n2nc(C(F)(F)F)cc2-c2nc3cccc(F)c3s2)cc1` displayed a melting point of 186 to 188 °C.
